# Target: human P2X7 (Homo sapiens (Human), UniProt Q99572)
# Assay: Human P2X7 functional assay (Ca2+ influx, Fluo-4, FDSS)
# Type: cell-based
# Settings: antagonistic activity with respect to the human P2X7 receptor; BzATP final concentration 80 microM
# Method: The ability of the 5,6,7,8-tetrahydroquinoline and 6,7-dihydro-5H-cyclopenta[b]pyridine derivatives of the formula (I) to inhibit the P2X7 channel was measured by Ca^2+ influx assay and electrophysiology assay described below.
# Human P2X7 Functional Assay
# The functional activity of compounds was determined by measuring changes in intracellular calcium concentration using a Ca^2+-sensitive fluorescent dye, Fluo-4 (Molecular Probes). The changes in fluorescent signal were monitored by the cell imaging technology by Hamamatsu Photonics's Functional Drug Screening System (FDSS). Increases in intracellular Ca^2+ concentration were readily detected upon activation with BzATP.
# HEK293 cells stably expressing human P2X7 (GenBank accession number BC011913) carrying a C-terminal FLAG tag were grown in T225 flasks, in a 5% CO2 humidified incubator to about 80% confluence. Media composition consisted of Dulbecco's Modified Eagle Medium (high glucose), 10% fetal bovine serum ([…]), 100 units/[…] Penicillin, 100 microg/mL Streptomycin and 250 microg/mL Geneticine.
# 1. Plate-out HEK293-human P2X7 cells (40 microL medium containing 10,000 cells per well) into poly-D-lysine coated 384-well plates (Corning) at 24 h prior to assay.
# 2. Incubate at 37° C. in 5% CO2.
# 3. Incubate the plate at 37° C. in 5% CO2 for 1 h.
# 5. Test compounds were prepared at 100× the test concentration in DMSO by serial dilution with Biomek-FX liquid handling instrument. 33× diluted compound solutions in assay buffer were prepared in intermediate compound plate with Biomek-NX liquid handling instrument. A further 3× dilution occurred in below steps 6 and 7.
# 6. Add 20 microL of 33× diluted compound solutions into each well and leave the plate for 10 min under the dark at room temperature.
# 7. Measure activity by FDSS as follows: • Set the assay plate on the stacker of FDSS. • Start the detection of fluorescence intensity at 540 nm by 480 nm exicitation. • After 30 seconds, add 20 microL of assay buffer containing 240 microM BzATP (final concentration 80 microM).
# IC50 values for compounds of the present invention were determined from 7-point dose-response studies. Curves were generated using the average of duplicate wells for each data point. Finally, the IC50 values are calculated with the best-fit dose curve determined by XLfit (ID Business Solutions Ltd.).
# human P2X7, sequence (Q99572 whole entry): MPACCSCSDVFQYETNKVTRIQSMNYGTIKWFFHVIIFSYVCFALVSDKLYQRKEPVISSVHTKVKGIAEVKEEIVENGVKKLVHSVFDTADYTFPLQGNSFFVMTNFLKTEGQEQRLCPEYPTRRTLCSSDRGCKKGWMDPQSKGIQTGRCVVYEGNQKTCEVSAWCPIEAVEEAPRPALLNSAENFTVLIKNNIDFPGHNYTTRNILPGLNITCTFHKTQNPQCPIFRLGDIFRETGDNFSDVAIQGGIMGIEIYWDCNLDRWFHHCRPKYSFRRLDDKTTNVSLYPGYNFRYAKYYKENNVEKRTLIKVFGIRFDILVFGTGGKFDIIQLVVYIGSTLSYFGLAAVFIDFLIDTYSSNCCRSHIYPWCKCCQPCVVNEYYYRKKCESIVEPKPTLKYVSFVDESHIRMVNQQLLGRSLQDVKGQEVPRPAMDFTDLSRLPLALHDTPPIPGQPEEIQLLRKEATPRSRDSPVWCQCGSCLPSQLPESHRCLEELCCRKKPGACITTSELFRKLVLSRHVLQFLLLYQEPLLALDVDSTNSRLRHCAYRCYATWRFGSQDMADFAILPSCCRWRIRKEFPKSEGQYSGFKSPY
row,Structure (SMILES),IC50
1,"O=C(NCc1ccc(Cl)cc1F)[C@H]1CC[C@H](O)c2ncccc21 [Example 77, (5S,8S)-N-(4-chloro-2-fluorobenzyl)-8-hydroxy-5,6,7,8-tetrahydroquinoline-5-carboxamide]",0.301 to 1 µM
2,"Cc1cc(Cl)cc(Cl)c1CNC(=O)[C@H]1C[C@@H](O)c2ncccc21 [Example 98, (5S,7R)-N-(2,4-dichloro-6-methylbenzyl)-7-hy-droxy-6,7-dihydro-5H-cyclopenta[b]pyridin-5-carboxamide]",0.101 to 0.3 µM
3,"O=C(NCc1nc(-c2ccc(Cl)cc2)cs1)[C@]1(F)CC[C@H](O)c2ncccc21 [Example 213, (5S,8S)-N-((4-(4-chlorophenyl)thiazol-2-yl)methyl)-5-fluoro-8-hydroxy-5,6,7,8-tetrahydroquinoline-5-carboxamide]",0.101 to 0.3 µM
4,"O=C1CCC(C(=O)NCC2CCCCCC2)c2cccnc21 (stereo not drawn) [Example 5, N-(cycloheptylmethyl)-8-oxo-5,6,7,8-tetrahydro-quinoline-5-carboxamide]",1 to 3 µM
5,"Cc1ccc(Cl)c(CNC(=O)[C@]2(F)CC[C@H](O)c3ncccc32)c1F [Example 216, (5S,8S)-N-(6-chloro-2-fluoro-3-methylbenzyl)-5-fluoro-8-hydroxy-5,6,7,8-tetrahydroquinoline-5-carboxamide]",0.101 to 0.3 µM
6,"CN(CCO)C[C@@]1(O)CC[C@](F)(C(=O)NCc2ccc(Cl)cc2Cl)c2cccnc21 [Example 278, (5R,8S)-N-(2,4-dichlorobenzyl)-5-fluoro-8-hydroxy-8-(((2-hydroxyethyl) (methyl)amino)methyl)-5,6,7,8-tetrahydroquinoline-5-carboxamide]",1 to 3 µM
7,"O=C(NCc1c(Cl)ccc(Cl)c1Cl)[C@@]1(F)CC[C@@H](O)c2ncccc21 [Example 164, (5R,8R)-5-fluoro-8-hydroxy-N-(2,3,6-trichlorobenzyl)-5,6,7,8-tetrahydroquinoline-5-carboxamide]",0.101 to 0.3 µM
8,"O=C(NCc1ccc(F)cc1C(F)(F)F)[C@@]1(F)CC[C@@H](O)c2ncccc21 [Example 143, (5R,8R)-5-fluoro-N-(4-fluoro-2-(trifluoromethyl)benzyl)-8-hydroxy-5,6,7,8-tetrahydroquinoline-5-carboxamide]",0.301 to 1 µM
9,"O=C(NCc1ccccc1F)[C@]1(F)CC[C@H](O)c2ncccc21 [Example 223, (5S,8S)-5-fluoro-N-(2-fluorobenzyl)-8-hydroxy-5,6,7,8-tetrahydroquinoline-5-carboxamide]",0.301 to 1 µM
10,"C[C@@H](NC(=O)[C@@]1(F)CC[C@@H](O)c2ncccc21)c1ccc(Cl)cc1Cl [Example 155, (5R,8R)-N-((R)-1-(2,4-dichlorophenyl)ethyl)-5-fluoro-8-hydroxy-5,6,7,8-tetrahydroquinoline-5-carboxamide]",0.05 to 0.1 µM
11,"O=C(NCc1ccc(F)c(Cl)c1)[C@]1(F)CC[C@H](O)c2ncccc21 [Example 188, (5S,8S)-N-(3-chloro-4-fluorobenzyl)-5-fluoro-8-hydroxy-5,6,7,8-tetrahydroquinoline-5-carboxamide]",< 0.05 µM
12,"O=C(NCc1cccc(Cl)c1Cl)[C@@]1(F)CC[C@H](O)c2ncccc21 [Example 120, (5R,8S)-N-(2,3-dichlorobenzyl)-5-fluoro-8-hydroxy-5,6,7,8-tetrahydroquinoline-5-carboxamide]",1 to 3 µM
13,"O=C(NCc1c(F)cc(Cl)cc1Cl)[C@@]1(F)CC[C@@H](O)c2ncccc21 [Example 151, (5R,8R)-N-(2,4-dichloro-6-fluorobenzyl)-5-fluoro-8-hydroxy-5,6,7,8-tetrahydroquinoline-5-carboxamide]",< 0.05 µM
14,"O=C(NCc1ccc(OC(F)(F)F)cc1F)[C@]1(F)CC[C@H](O)c2ncccc21 [Example 207, (5S,8S)-5-fluoro-N-(2-fluoro-4-(trifluoromethoxy)benzyl)-8-hydroxy-5,6,7,8-tetrahydroquinoline-5-carboxamide]",0.101 to 0.3 µM
15,"O=C(NCc1ccc(Cl)cc1F)[C@H]1CC[C@@H](O)c2ncccc21 [Example 96, (5S,8R)-N-(4-chloro-2-fluorobenzyl)-8-hydroxy-5,6,7,8-tetrahydroquinoline-5-carboxamide]",1 to 3 µM
16,"Cc1cnc2c(c1)[C@](F)(C(=O)NCc1ccc(F)cc1Cl)CC[C@@H]2O [Example 244, (5S,8S)-N-(2-chloro-4-fluorobenzyl)-5-fluoro-8-hydroxy-3-methyl-5,6,7,8-tetrahydroquinoline-5-carboxamide]",1 to 3 µM
17,"O=C(N[C@H]1CCC[C@@H]1OCc1ccccc1)[C@]1(F)CC[C@H](O)c2ncccc21 [Example 225, (5S,8S)-N-((1S,2S)-2-(benzyloxy)cyclopentyl)-5-fluoro-8-hydroxy-5,6,7,8-tetrahydroquinoline-5-carboxamide]",0.301 to 1 µM

row,Structure (SMILES),IC50
1,"O=C(NCc1ccc(Cl)cc1Cl)[C@@]1(F)CC[C@@H](OCCO)c2ncccc21 [Example 348, (5R,8R)-N-(2,4-dtchlorobenzyl)-5-fluoro-8-(2-hydroxyethoxy)-5.6,7,8-tetrahydroquinoline-5-carboxamide]",0.101 to 0.3 µM
2,O=C(NCCOc1cccc(C(F)(F)F)c1)[C@]1(F)CC[C@H](O)c2ncccc21 [Example 219],0.301 to 1 µM
3,"O=C(NCc1cc(F)c(F)cc1Cl)[C@]1(F)CC[C@@H](O)c2ncccc21 [Example 123, (5S,8R)-N-(2-chloro-4,5-difluorobenzyl)-5-fluoro-8-hydroxy-5,6,7,8,- tetrahydroqunioline-5-carboxamide]",0.101 to 0.3 µM
4,"O=C(NCc1ccc(Cl)cc1)[C@]1(F)CC[C@H](O)c2ncccc21 [Example 210, (5S,8S)-N-(4-chlorobenzyl)-5-fluoro-8-hydroxy-5,6,7,8-tetrahydroquinoline-5-carboxamide]",0.101 to 0.3 µM
5,"O=C(NCc1ccc(F)cc1Cl)[C@H]1CC[C@@H](O)c2ncccc21 [Example 90, (5S,8R)-N-(2-chloro-4-fluorobenzyl)-8-hydroxy-5,6,7,8-tetrahydroquinoline-5-carboxamide]",0.101 to 0.3 µM
6,"O=C(NCc1cc(Cl)cc(Cl)c1)[C@]1(F)CC[C@H](O)c2ncccc21 [Example 212, (5S,8S)-N-(3,5-dichlorobenzyl)-5-fluoro-8-hydroxy-5,6,7,8-tetrahydroquinoline-5-carboxamide]",0.101 to 0.3 µM
7,"O=C(NCc1ccc(F)c(F)c1F)[C@H]1CC[C@@H](O)c2ncccc21 [Example 94, (5S,8R)-8-hydroxy-N-(2,3,4-trifluorobenzyl)-5,6,7,8-tetrahydroquinoline-5-carboxamide]",1 to 3 µM
8,"Cc1cc(Cl)cc(Cl)c1CNC(=O)C1(O)CCC(=O)c2ncccc21 (stereo not drawn) [Example 15, N-(2,4-dichloro-6-methylbenzyl)-5-hydroxy-8-oxo-5,6,7,8-tetrahydro-quinoline-5-carboxamide]",0.301 to 1 µM
9,"O=C(O)CC1CCC(C(=O)NCc2cccc(C(F)(F)F)c2Cl)c2cccnc21 (stereo not drawn) [Example 31, 2-(5-((2-chloro-3-(trifluoro-methyl)benzyl)carbamoyl)-5,6,7,8-tetrahydroquinolin-8-yl)acetic acid]",0.05 to 0.1 µM
10,"COc1cccc(Cl)c1CNC(=O)[C@]1(F)CC[C@H](O)c2ncccc21 [Example 198, (5S,8S)-N-(2-chloro-6-methoxybenzyl)-5-fluoro-8-hydroxy-5,6,7,8-tetrahydroquinoline-5-carboxamide]",< 0.05 µM
11,"Cc1cnc2c(c1)[C@](F)(C(=O)NCc1ccc(Cl)cc1Cl)CC[C@@]2(O)CO [Example 325, (5S,8S)-N-(2,4-dichlorobenzyl)-5-fluoro-8-hydroxy-8-(hydroxymethyl)-3-methyl-5,6,7,8-tetrahydroquinoline-5-carboxamide]",1 to 3 µM
12,"O=C(NCc1c(Cl)cccc1Cl)[C@@]1(F)CC[C@@H](O)c2ncccc21 [Example 138, (5R,8R)-N-(2,6-dichlorobenzyl)-5-fluoro-8-hydroxy-5,6,7,8-tetrahydroquinoline-5-carboxamide]",0.101 to 0.3 µM
13,O=C(NCc1c(Cl)cc(Cl)cc1C(F)F)[C@@]1(F)CC[C@H](O)c2ncccc21 [Example 114],0.101 to 0.3 µM
14,"Cc1cccc(Cl)c1CNC(=O)[C@@]1(F)CC[C@@H](O)c2ncccc21 [Example 160, (5R,8R)-N-(2-chloro-6-methylbenzyl)-5-fluoro-8-hydroxy-5,6,7,8-tetrahydroquinoline-5-carboxamide]",0.101 to 0.3 µM
15,"O=C(NCCc1ccc(Cl)cc1Cl)[C@]1(F)CC[C@@](O)(CO)c2ncccc21 [Example 330, (5S,8S)-N-(2,4-dichlorophenethyl)-5-fluoro-8-hydroxy-8-(hydroxymethyl)-5,6,7,8-tetrahydroquinoline-5-carboxamide]",0.301 to 1 µM
16,"O=C1CCC(C(=O)NCc2c(Cl)cc(Cl)cc2CO)c2cccnc21 (stereo not drawn) [Example 4, N-(2,4-dichloro-6-(hydroxy-methyl)benzyl)-8-oxo-5,6,7,8-tetrahydroquinoline-5-carboxamide]",< 0.05 µM
